Test results taken from BigSolDB 2.1.

C#C[C@]1(O)C=C[C@H]2[C@@H]3CCC4=CC(=O)CC[C@@H]4[C@H]3CC[C@@]21CC
solubility (mole fraction) (in 2-butanone, 283.15 K): 0.00956 | solubility (mole fraction) (in 2-butanone, 288.15 K): 0.0114 | solubility (mole fraction) (in 2-butanone, 293.15 K): 0.0134 | solubility (mole fraction) (in 2-butanone, 298.15 K): 0.0159 | solubility (mole fraction) (in 2-butanone, 303.15 K): 0.0188 | solubility (mole fraction) (in 2-butanone, 308.15 K): 0.0221 | solubility (mole fraction) (in 2-butanone, 313.15 K): 0.0258 | solubility (mole fraction) (in 2-butanone, 318.15 K): 0.0302 | solubility (mole fraction) (in 2-butanone, 323.15 K): 0.0352 | solubility (mole fraction) (in acetone, 283.15 K): 0.00379 | solubility (mole fraction) (in acetone, 288.15 K): 0.00499 | solubility (mole fraction) (in acetone, 293.15 K): 0.00654 | solubility (mole fraction) (in acetone, 298.15 K): 0.00862 | solubility (mole fraction) (in acetone, 303.15 K): 0.0113 | solubility (mole fraction) (in acetone, 308.15 K): 0.0147 | solubility (mole fraction) (in acetone, 313.15 K): 0.0189 | solubility (mole fraction) (in acetone, 318.15 K): 0.024 | solubility (mole fraction) (in acetone, 323.15 K): 0.0302 | solubility (mole fraction) (in acetonitrile, 283.15 K): 0.00262 | solubility (mole fraction) (in acetonitrile, 288.15 K): 0.00306 | solubility (mole fraction) (in acetonitrile, 293.15 K): 0.00358 | solubility (mole fraction) (in acetonitrile, 298.15 K): 0.00418 | solubility (mole fraction) (in acetonitrile, 303.15 K): 0.00487 | solubility (mole fraction) (in acetonitrile, 308.15 K): 0.00566 | solubility (mole fraction) (in acetonitrile, 313.15 K): 0.00655 | solubility (mole fraction) (in acetonitrile, 318.15 K): 0.00754 | solubility (mole fraction) (in acetonitrile, 323.15 K): 0.00868 | solubility (mole fraction) (in ethanol, 283.15 K): 0.00314 | solubility (mole fraction) (in ethanol, 288.15 K): 0.00387 | solubility (mole fraction) (in ethanol, 293.15 K): 0.00473 | solubility (mole fraction) (in ethanol, 298.15 K): 0.00577 | solubility (mole fraction) (in ethanol, 303.15 K): 0.00701 | solubility (mole fraction) (in ethanol, 308.15 K): 0.0085 | solubility (mole fraction) (in ethanol, 313.15 K): 0.0102 | solubility (mole fraction) (in ethanol, 318.15 K): 0.0123 | solubility (mole fraction) (in ethanol, 323.15 K): 0.0147 | solubility (mole fraction) (in ethyl acetate, 283.15 K): 0.0146 | solubility (mole fraction) (in ethyl acetate, 288.15 K): 0.0161 | solubility (mole fraction) (in ethyl acetate, 293.15 K): 0.018 | solubility (mole fraction) (in ethyl acetate, 298.15 K): 0.0194 | solubility (mole fraction) (in ethyl acetate, 303.15 K): 0.0211 | solubility (mole fraction) (in ethyl acetate, 308.15 K): 0.0228 | solubility (mole fraction) (in ethyl acetate, 313.15 K): 0.0247 | solubility (mole fraction) (in ethyl acetate, 318.15 K): 0.0264 | solubility (mole fraction) (in ethyl acetate, 323.15 K): 0.0282 | solubility (mole fraction) (in isopropanol, 283.15 K): 0.00155 | solubility (mole fraction) (in isopropanol, 288.15 K): 0.00199 | solubility (mole fraction) (in isopropanol, 293.15 K): 0.0026 | solubility (mole fraction) (in isopropanol, 298.15 K): 0.00328 | solubility (mole fraction) (in isopropanol, 303.15 K): 0.00413 | solubility (mole fraction) (in isopropanol, 308.15 K): 0.00519 | solubility (mole fraction) (in isopropanol, 313.15 K): 0.00648 | solubility (mole fraction) (in isopropanol, 318.15 K): 0.00809 | solubility (mole fraction) (in isopropanol, 323.15 K): 0.0101 | solubility (mole fraction) (in isopropyl acetate, 283.15 K): 0.0174 | solubility (mole fraction) (in isopropyl acetate, 288.15 K): 0.0213 | solubility (mole fraction) (in isopropyl acetate, 293.15 K): 0.0259 | solubility (mole fraction) (in isopropyl acetate, 298.15 K): 0.031 | solubility (mole fraction) (in isopropyl acetate, 303.15 K): 0.0371 | solubility (mole fraction) (in isopropyl acetate, 308.15 K): 0.044 | solubility (mole fraction) (in isopropyl acetate, 313.15 K): 0.052 | solubility (mole fraction) (in isopropyl acetate, 318.15 K): 0.061 | solubility (mole fraction) (in isopropyl acetate, 323.15 K): 0.0711 | solubility (mole fraction) (in methanol, 283.15 K): 0.00457 | solubility (mole fraction) (in methanol, 288.15 K): 0.0055 | solubility (mole fraction) (in methanol, 293.15 K): 0.00655 | solubility (mole fraction) (in methanol, 298.15 K): 0.00777 | solubility (mole fraction) (in methanol, 303.15 K): 0.00917 | solubility (mole fraction) (in methanol, 308.15 K): 0.0108 | solubility (mole fraction) (in methanol, 313.15 K): 0.0125 | solubility (mole fraction) (in methanol, 318.15 K): 0.0145 | solubility (mole fraction) (in methanol, 323.15 K): 0.0168 | solubility (mole fraction) (in n-butanol, 283.15 K): 0.00395 | solubility (mole fraction) (in n-butanol, 288.15 K): 0.00465 | solubility (mole fraction) (in n-butanol, 293.15 K): 0.00549 | solubility (mole fraction) (in n-butanol, 298.15 K): 0.00642 | solubility (mole fraction) (in n-butanol, 303.15 K): 0.0075 | solubility (mole fraction) (in n-butanol, 308.15 K): 0.00875 | solubility (mole fraction) (in n-butanol, 313.15 K): 0.0102 | solubility (mole fraction) (in n-butanol, 318.15 K): 0.0118 | solubility (mole fraction) (in n-butanol, 323.15 K): 0.0136 | solubility (mole fraction) (in n-propanol, 283.15 K): 0.00376 | solubility (mole fraction) (in n-propanol, 288.15 K): 0.00461 | solubility (mole fraction) (in n-propanol, 293.15 K): 0.0056 | solubility (mole fraction) (in n-propanol, 298.15 K): 0.00678 | solubility (mole fraction) (in n-propanol, 303.15 K): 0.00817 | solubility (mole fraction) (in n-propanol, 308.15 K): 0.00979 | solubility (mole fraction) (in n-propanol, 313.15 K): 0.0117 | solubility (mole fraction) (in n-propanol, 318.15 K): 0.014 | solubility (mole fraction) (in n-propanol, 323.15 K): 0.0166 | solubility (mole fraction) (in water, 283.15 K): 6.83e-06 | solubility (mole fraction) (in water, 288.15 K): 7.69e-06 | solubility (mole fraction) (in water, 293.15 K): 8.93e-06 | solubility (mole fraction) (in water, 298.15 K): 1.06e-05 | solubility (mole fraction) (in water, 303.15 K): 1.23e-05 | solubility (mole fraction) (in water, 308.15 K): 1.42e-05 | solubility (mole fraction) (in water, 313.15 K): 1.62e-05 | solubility (mole fraction) (in water, 318.15 K): 1.87e-05 | solubility (mole fraction) (in water, 323.15 K): 2.16e-05
